Source: patent US20080312255A1 (ASTRAZENECA AB, priority 2007, published 2008)
In brackets after ≈: the same amount, converted by molar mass.

target: S. aureus GyrB ATPase (Staphylococcus aureus, UniProt P0A0K8); assay: S. aureus GyrB ATPase inhibition (ammonium molybdate/malachite green phosphate detection); type: biochemical; conditions: compound concentration of 1 μM
Procedure, shortened: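 E. coli GyrA and S. aureus GyrB (250 pM each) with sheared salmon sperm DNA and 250 μM ATP, pH 7.5 Hepes buffer. Released phosphate detected by malachite green/ammonium molybdate at 650 nm; percent inhibition at 1 μM compound unless noted, normalized to 2% DMSO (0%) and EDTA (100%) controls.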

Chain of S. aureus GyrB ATPase (P0AES4 whole entry): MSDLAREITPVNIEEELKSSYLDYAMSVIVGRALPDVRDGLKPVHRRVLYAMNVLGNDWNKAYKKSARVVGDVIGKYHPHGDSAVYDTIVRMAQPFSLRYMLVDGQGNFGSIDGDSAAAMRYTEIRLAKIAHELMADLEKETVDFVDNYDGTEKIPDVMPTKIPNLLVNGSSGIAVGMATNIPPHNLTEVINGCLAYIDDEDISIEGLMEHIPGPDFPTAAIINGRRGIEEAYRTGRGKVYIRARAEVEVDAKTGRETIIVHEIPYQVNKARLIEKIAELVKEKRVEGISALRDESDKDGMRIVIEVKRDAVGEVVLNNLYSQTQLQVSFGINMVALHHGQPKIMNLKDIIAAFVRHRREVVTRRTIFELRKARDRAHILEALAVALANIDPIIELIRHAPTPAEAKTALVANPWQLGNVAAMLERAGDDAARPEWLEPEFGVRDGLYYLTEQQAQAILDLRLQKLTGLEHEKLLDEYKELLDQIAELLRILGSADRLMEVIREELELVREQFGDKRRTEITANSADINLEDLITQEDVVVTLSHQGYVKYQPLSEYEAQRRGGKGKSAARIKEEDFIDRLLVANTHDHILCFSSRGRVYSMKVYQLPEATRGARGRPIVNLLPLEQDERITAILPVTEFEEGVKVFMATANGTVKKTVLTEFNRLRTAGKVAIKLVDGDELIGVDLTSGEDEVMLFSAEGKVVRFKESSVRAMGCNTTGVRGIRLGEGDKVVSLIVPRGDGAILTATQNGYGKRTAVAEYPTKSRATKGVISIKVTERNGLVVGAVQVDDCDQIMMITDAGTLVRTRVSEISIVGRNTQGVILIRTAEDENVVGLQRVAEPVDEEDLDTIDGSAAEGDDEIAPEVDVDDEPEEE
Chain of S. aureus GyrB ATPase (P0A0K8 whole entry): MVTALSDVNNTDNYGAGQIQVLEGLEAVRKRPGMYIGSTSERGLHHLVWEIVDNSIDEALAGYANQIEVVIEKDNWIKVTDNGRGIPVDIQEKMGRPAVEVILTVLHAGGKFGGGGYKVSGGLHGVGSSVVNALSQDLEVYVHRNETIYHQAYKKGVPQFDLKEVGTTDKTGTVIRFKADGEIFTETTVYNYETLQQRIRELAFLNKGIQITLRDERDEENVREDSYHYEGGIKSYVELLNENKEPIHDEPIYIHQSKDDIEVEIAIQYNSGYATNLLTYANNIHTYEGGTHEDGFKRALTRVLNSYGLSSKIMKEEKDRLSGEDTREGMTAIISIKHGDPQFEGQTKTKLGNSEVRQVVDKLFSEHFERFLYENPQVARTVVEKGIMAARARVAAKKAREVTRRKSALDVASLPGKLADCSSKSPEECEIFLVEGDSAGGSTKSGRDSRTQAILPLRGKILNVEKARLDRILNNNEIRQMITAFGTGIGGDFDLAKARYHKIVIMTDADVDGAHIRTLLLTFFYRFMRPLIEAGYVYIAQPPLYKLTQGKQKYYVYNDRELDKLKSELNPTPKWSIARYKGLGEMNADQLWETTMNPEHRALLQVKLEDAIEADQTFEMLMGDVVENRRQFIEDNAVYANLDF

First: COc1cc(OC)nc(-c2nc(N3CC[C@@H](NC(=O)c4[nH]c(C)c(Cl)c4Cl)[C@@H](OC)C3)sc2C(=O)O)n1 [Example 11, 2-((3S,4R)-4-{[(3,4-Dichloro-5-methyl-1H-pyrrol-2-yl)carbonyl]amino}-3-methoxypiperidin-1-yl)-4-(4,6-dimethoxypyrimidin-2-yl)-1,3-thiazole-5-carboxylic acid]
Second: CCCO[C@H]1CN(c2nc(-c3ncnn3C)c(C(=O)O)s2)CC[C@H]1NC(=O)c1[nH]c(C)c(Cl)c1Cl [Example 159, 2-[(3S,4R)-4-{[(3,4-dichloro-5-methyl-1H-pyrrol-2-yl)carbonyl]amino}-3-propoxypiperidin-1-yl]-4-(1-methyl-1H-1,2,4-triazol-5-yl)-1,3-thiazole-5-carboxylic acid]
The inhibition at 1 µM of the first is higher: 92% for the first, 31% for the second.

Compared with `Cc1[nH]c(C(=O)N[C@@H]2CCN(c3nc(-c4ncnn4C)c(C(=O)O)s3)C[C@@H]2OCc2ccccc2)c(Cl)c1Cl` [Example 141, 2-[(3S,4R)-3-(benzyloxy)-4-{[(3,4-dichloro-5-methyl-1H-pyrrol-2-yl)carbonyl]amino}piperidin-1-yl]-4-(1-methyl-1H-1,2,4-triazol-5-yl)-1,3-thiazole-5-carboxylic acid], `Cc1[nH]c(C(=O)N[C@@H]2CCN(c3nc(-c4ncnn4C)c(C(=O)O)s3)C[C@@H]2OCc2ccccc2)c(C#N)c1Cl` [Example 151, 2-[(3S,4R)-3-(benzyloxy)-4-{[(4-chloro-3-cyano-5-methyl-1H-pyrrol-2-yl)carbonyl]amino}piperidin-1-yl]-4-(1-methyl-1H-1,2,4-triazol-5-yl)-1,3-thiazole-5-carboxylic acid] is lower in inhibition at 1 µM: 116% for the first, 115% for the second.

Going from `COCCn1ccnc1-c1nc(N2CC[C@@H](NC(=O)c3[nH]c(C)c(Cl)c3Cl)[C@@H](OCc3ccccc3)C2)sc1C(=O)O` [Example 143, 2-[(3S,4R)-3-(benzyloxy)-4-{[(3,4-dichloro-5-methyl-1H-pyrrol-2-yl)carbonyl]amino}piperidin-1-yl]-4-[1-(2-methoxyethyl)-1H-imidazol-2-yl]-1,3-thiazole-5-carboxylic acid] to `COCCn1ccnc1-c1nc(N2CC[C@@H](NC(=O)c3[nH]c(C)c(Cl)c3C#N)[C@@H](OCc3ccccc3)C2)sc1C(=O)O` [Example 153], the inhibition at 1 µM falls from 98.8% to 98.6%.

First: Cc1[nH]c(C(=O)N[C@@H]2CCN(c3nc(-c4ncccc4F)c(C(=O)O)s3)C[C@@H]2OCc2ccccc2)c(Cl)c1Cl [Example 144, 2-[(3S,4R)-3-(benzyloxy)-4-{[(3,4-dichloro-5-methyl-1H-pyrrol-2-yl)carbonyl]amino}piperidin-1-yl]-4-(3-fluoropyridin-2-yl)-1,3-thiazole-5-carboxylic acid]
Second: Cc1[nH]c(C(=O)N[C@@H]2CCN(c3nc(-c4ncccc4F)c(C(=O)O)s3)C[C@@H]2OCc2ccccc2)c(C#N)c1Cl [Example 154, 2-[(3S,4R)-3-(benzyloxy)-4-{[(4-chloro-3-cyano-5-methyl-1H-pyrrol-2-yl)carbonyl]amino}piperidin-1-yl]-4-(3-fluoropyridin-2-yl)-1,3-thiazole-5-carboxylic acid]
The inhibition at 1 µM of the first is higher: 114% for the first, 112% for the second.

First: Cc1[nH]c(C(=O)N[C@@H]2CCN(c3nc(-c4cnccn4)c(C(=O)O)s3)C[C@@H]2OCc2ccccc2)c(Cl)c1Cl [Example 145, 2-[(3S,4R)-3-(benzyloxy)-4-{[(3,4-dichloro-5-methyl-1H-pyrrol-2-yl)carbonyl]amino}piperidin-1-yl]-4-(pyrazin-2-yl)-1,3-thiazole-5-carboxylic acid]
Second: Cc1[nH]c(C(=O)N[C@@H]2CCN(c3nc(-c4cnccn4)c(C(=O)O)s3)C[C@@H]2OCc2ccccc2)c(C#N)c1Cl [Example 155, 2-[(3S,4R)-3-(benzyloxy)-4-{[(4-chloro-3-cyano-5-methyl-1H-pyrrol-2-yl)carbonyl]amino}piperidin-1-yl]-4-(pyrazin-2-yl)-1,3-thiazole-5-carboxylic acid]
The inhibition at 1 µM of the first is higher: 113% for the first, 110% for the second.

Compared with `Cc1[nH]c(C(=O)N[C@@H]2CCN(c3nc(-c4ncnn4C)c(C(=O)O)s3)C[C@@H]2OCc2ccccc2)cc1Cl` [Example 146, 2-[(3S,4R)-3-(benzyloxy)-4-{[(4-chloro-5-methyl-1H-pyrrol-2-yl)carbonyl]amino}piperidin-1-yl]-4-(1-methyl-1H-1,2,4-triazol-5-yl)-1,3-thiazole-5-carboxylic acid], `COCCn1ccnc1-c1nc(N2CC[C@@H](NC(=O)c3cc(Cl)c(C)[nH]3)[C@@H](OCc3ccccc3)C2)sc1C(=O)O` [Example 148, 2-[(3S,4R)-3-(benzyloxy)-4-{[(4-chloro-5-methyl-1H-pyrrol-2-yl)carbonyl]amino}piperidin-1-yl]-4-[1-(2-methoxyethyl)-1H-imidazol-2-yl]-1,3-thiazole-5-carboxylic acid] is lower in inhibition at 1 µM: 116% for the first, 99.9% for the second.

Compared with `Cc1[nH]c(C(=O)N[C@@H]2CCN(c3nc(-c4ncccc4F)c(C(=O)O)s3)C[C@@H]2OCc2ccccc2)cc1Cl` [Example 149, 2-[(3S,4R)-3-(benzyloxy)-4-{[(4-chloro-5-methyl-1H-pyrrol-2-yl)carbonyl]amino}piperidin-1-yl]-4-(3-fluoropyridin-2-yl)-1,3-thiazole-5-carboxylic acid], `Cc1[nH]c(C(=O)N[C@@H]2CCN(c3nc(-c4cnccn4)c(C(=O)O)s3)C[C@@H]2OCc2ccccc2)cc1Cl` [Example 150, 2-[(3S,4R)-3-(benzyloxy)-4-{[(4-chloro-5-methyl-1H-pyrrol-2-yl)carbonyl]amino}piperidin-1-yl]-4-(pyrazin-2-yl)-1,3-thiazole-5-carboxylic acid] is lower in inhibition at 1 µM: 103% for the first, 102% for the second.

Compound `CCCO[C@H]1CN(c2nc(-c3ncccc3F)c(C(=O)O)s2)CC[C@H]1NC(=O)c1[nH]c(C)c(Cl)c1Cl` [Example 160, 2-[(3S,4R)-4-{[(3,4-dichloro-5-methyl-1H-pyrrol-2-yl)carbonyl]amino}-3-propoxypiperidin-1-yl]-4-(3-fluoropyridin-2-yl)-1,3-thiazole-5-carboxylic acid] has an inhibition at 1 µM of 4.5%.

same assay, conditions: compound tested at a concentration of 5 μM

In the case of `CCCO[C@H]1CN(c2nc(-c3cnccn3)c(C(=O)O)s2)CC[C@H]1NC(=O)c1[nH]c(C)c(Cl)c1Cl` [Example 161, 2-[(3S,4R)-4-{[(3,4-dichloro-5-methyl-1H-pyrrol-2-yl)carbonyl]amino}-3-propoxypiperidin-1-yl]-4-(pyrazin-2-yl)-1,3-thiazole-5-carboxylic acid], the inhibition at 5 µM was 14%.

tested on: Streptococcus pneumoniae; assay: Bacterial susceptibility testing in liquid media (MIC); type: cell-based; conditions: 37° C., 24 hrs, lowest concentration reducing growth by 80% or more, read-out: MIC against Streptococcus pneumoniae
Text: Compounds may be tested for antimicrobial activity by susceptibility testing in liquid media. Compounds may be dissolved in dimethylsulfoxide and tested in 10 doubling dilutions in the susceptibility assays. The organisms used in the assay may be grown overnight on suitable agar media and then suspended in a liquid medium appropriate for the growth of the organism. The suspension can be a 0.5 McFarland and a further 1 in 10 dilution can be made into the same liquid medium to prepare the final organism suspension in 100 μL. Plates can be incubated under appropriate conditions at 37° C. for 24 hrs prior to reading. The Minimum Inhibitory Concentration (MIC) may be determined as the lowest drug concentration able to reduce growth by 80% or more.

`COc1cc(OC)nc(-c2nc(N3CC[C@@H](NC(=O)c4[nH]c(C)c(Cl)c4Cl)[C@@H](OC)C3)sc2C(=O)O)n1` [Example 11, 2-((3S,4R)-4-{[(3,4-Dichloro-5-methyl-1H-pyrrol-2-yl)carbonyl]amino}-3-methoxypiperidin-1-yl)-4-(4,6-dimethoxypyrimidin-2-yl)-1,3-thiazole-5-carboxylic acid] showed an MIC of 0.06 µg/mL (≈ 0.105 µM).
